Reference: patent US3932471A, “Azide” (priority 1973, dated 1976)
Values after ≈ are worked out from the molar mass of the structure shown.

Experiments:
Type in all cases: in vivo
[1] = system: melon aphid (Aphis gosyppi); test: Systemic activity against melon aphid; details: cucumber seedlings
Description: Systemic Activity of Compound 7268 Against Melon Aphid
The techniques used are essentially the same as for the systemic tests described above in Example 15. The test plants are cucumber seedlings; the test compound is Compound 7268; and the pest is the melon aphid (Aphis gosyppi).

[2] = system: Mexican Bean Beetle Larvae; test: Residual systemic activity against Mexican bean beetle larvae; details: Epilachna varivestis
Description: Residual Systemic Activity of Compound 7268 Against Mexican Bean Beetle Larvae
Three furrows are opened in soil contained in 8 × 10 × 3 inch fiber pans and 12 Pinto bean seeds are evenly distributed in each furrow. The test compound is Compound 7268. Appropriate volumes of test formulation to give the desired dosages are applied over the seeds in the open furrows, and the furrows are immediately closed. At the indicated weekly intervals, one leaf is harvested from each row, placed onto water agar in a plastic Petri dish, and infested with 10 one-day-old bean beetle larvae. Mortality is determined three days later.

[3] = system: Southern corn rootworm (Diabrotica undecimpunctata howardi); test: Soil activity against Southern corn rootworm; details: 120 h
Experimental: Activity of Compound 7268 Against Southern Corn Rootworm
The test organism is a strain of Southern corn rootworm (Diabrotica undecimpunctata howardi) resistant to chlorinated hydrocarbon insecticides and the test compound is Compound 7268. Duplicate samples of sand-soil mixtures are treated with appropriate volumes of test formulation to give the desired dosages. The sand-soil samples are in covered paper cups, and several hours after drenching, all cups are given a thorough shaking to provide complete and uniform mixing of the chemical throughout the soil. One day after treatment, two corn seedlings and five rootworms are placed into each cup and the lids replaced. Five days later, mortality is determined.

[4] = system: Southern army worm (Prodenia eridania); test: Southern army worm spray test (AW); details: 72 h; contact activity rating, 50% mortality, three days
Experimental: (§1) The compounds are evaluated for biological activity against the following representative pests: Mexican bean beetle (Epilachna varivestis), Southern army worm (Prodenia eridania), housefly (Musca domestica), bean aphid (Aphis fabae), and red spider mite (Tetranychus sp.). The last two pests are treated both by contact and systemic application.
(§2) For purposes of comparison, results obtained with known Compound 7472, Compound 7577, and aldicarb are included in the test results. Each test compound is rated using the following scale:
Southern Army Worm Spray Test
Paired fully expanded primary leaves excised from Scarlet runner bean plants are maintained in plastic tubes containing water and sprayed with the test formulation prepared as described in Example 15. After the spray deposit on the leaves is dry, the paired leaves are separated. One leaf is placed onto 1.5 percent water agar and infested with 10 newly hatched Southern army worm larvae. The covered test receptacle is held at 72° F for three days and then the percent mortality is determined. Results of this test are shown in Table 7 as AW (Southern army worm spray test).

[5] = system: housefly (Musca domestica); test: Housefly spray test (HF); details: 72 h, contact activity rating, 50% mortality, three days
Experimental: as §1, §2
This test determines the insecticidal activity of the compound being tested against adult houseflies, Musca domestica. Stock formulations containing 500 ppm of each test chemical are prepared using the procedure described in Example 15 and are diluted to obtain the appropriate lower concentrations.
Ten adult flies are placed in a cylindrical screen cage 11/2 by 4 inches fabricated from 20-mesh stainless steel screening and are sprayed with 50 ml of the stock or diluted formulation. The flies are supplied food and drink from a dextrose solution by draping a paper wick over the outside of the screen cylinder and are able to feed and drink ad libitum. Percent mortality obtained is determined three days after treatment. Results of this test are shown in Table 7 as HF (housefly spray test).

[6] = system: Lygus Bug; test: Systemic test against Lygus bug
Description: (§3) Systemic Test of Compound 7268 Against Lygus Bug and Spotted Cucumber Beetle
(§4) The techniques used are essentially the same for the systemic tests described above in Example 15. The test compound is Compound 7268. There is one Sieva bean plant per pot and five adult insects are caged on each plant. One plant is used for each test species.

[7] = system: Spotted Cucumber Beetle; test: Systemic test against spotted cucumber beetle; details: Diabrotica undecimpunctata
Description: as §3, §4

CNC(=O)ON=C(CSC)C(C)(C)C [Compound 7268, 3,3-dimethyl-2-methylcarbamyloximino-1-methylthiobutane]
% Control ([1]; 0.062 lb/A): 100% | % Control ([1]; 0.125 lb/A): 100% | % Control ([1]; 0.25 lb/A): 100% | % Control ([1]; 0.5 lb/A): 100% | mortality at 280.212 g/ha ([2]; 504 h): 100% | mortality at 560.425 g/ha ([2]; 504 h): 100% | mortality at 1120.85 g/ha ([2]; 504 h): 100% | mortality at 280.212 g/ha ([2]; 1176 h): 100% | mortality at 560.425 g/ha ([2]; 1176 h): 100% | mortality at 1120.85 g/ha ([2]; 1176 h): 100% | mortality at 280.212 g/ha ([2]; 1680 h): 100% | mortality at 560.425 g/ha ([2]; 1680 h): 100% | mortality at 1120.85 g/ha ([2]; 1680 h): 95% | mortality at 280.212 g/ha ([2]; 1848 h): 95% | mortality at 560.425 g/ha ([2]; 1848 h): 70% | mortality at 1120.85 g/ha ([2]; 1848 h): 95% | mortality at 1 lb/6" A [3]: 90% | mortality at 1.25 lb/6" A [3]: 100% | mortality at 2.5 lb/6" A [3]: 100% | LC50 [4]: > 500 µg/mL | LC50 [5]: 250 to 500 µg/mL (≈ 1150 to 2290 µM) | % Mortality ([6]; 0.5 lb/A, 3 days): 0% | % Mortality ([6]; 0.5 lb/A, 4 days): 60% | % Mortality ([6]; 0.5 lb/A, 6 days): 80% | % Mortality ([6]; 1 lb/A, 3 days): 80% | % Mortality ([6]; 1 lb/A, 4 days): 80% | % Mortality ([6]; 1 lb/A, 6 days): 100% | % Mortality ([6]; 2 lb/A, 3 days): 100% | % Mortality ([6]; 2 lb/A, 4 days): 100% | % Mortality ([6]; 2 lb/A, 6 days): 100% | mortality at 560.425 g/ha ([7]; 72 h): 20% | mortality at 1120.85 g/ha ([7]; 72 h): 30% | mortality at 2241.7 g/ha ([7]; 72 h): 60% | mortality at 560.425 g/ha ([7]; 96 h): 40% | mortality at 1120.85 g/ha ([7]; 96 h): 100% | mortality at 2241.7 g/ha ([7]; 96 h): 100% | mortality at 560.425 g/ha ([7]; 144 h): 80% | mortality at 1120.85 g/ha ([7]; 144 h): 100% | mortality at 2241.7 g/ha ([7]; 144 h): 100%
